What was measured:
Type in all cases: cell-based, human
[1] = test system: CD8+ T cells from one MM patient; assay: aAPC priming and tetramer staining, CD8+ T cells of an MM patient; settings: T cells from an MM patient without previous T-cell reactivity for P2
Procedure: (§1) For the generation of artificial antigen presenting cells (aAPC), 4×10^6 streptavidincoated polystyrene particles (Bangs Laboratories) per ml were resuspended in PBE (PBS/BSA/ETDA, Gibco/Sigma Aldrich/Lonza) containing 200 pM biotinylated MHCpeptide monomer and 20 nM anti-human biotinylated CD28 antibody and incubated at room temperature for 30 min. After washing, the aAPCs were stored at 4° C. prior to use. CD8^+ T cells from MM patients and HV were enriched by positive selection using magnetic cell sorting (Miltenyi Biotec). Stimulations were initiated in 96-well plates with 1×10^6 T cells plus 2×10^5 aAPCs in 200 μl T-cell medium complemented with 5 ng/ml human IL-12 (PromoKine). […] IL-2 (R&D Systems) were added on day 5. aAPC stimulation was repeated on day 10, for a total of 3 cycles.
(§2) The frequency of peptide-specific CD8^+ T cells was determined on a FACS Canto II cytometer (BD Bioscience) by staining with anti-CD8 (Biolegend) and HLA:peptidetetramer-PE as described previously. Staining with tetramers containing the CMV pp65 A*02 peptide NLVPMVATV (SEQ ID No. 236) served as positive control, tetramers containing irrelevant, non-primed A*02 restricted control peptides as negative controls. […]

[2] = test system: PBMC obtained from MM patients; assay: 12-day recall IFNγ ELISPOT with PBMC of MM patients; settings: 12-day recall IFNγ ELISPOT, PBMC of MM patients, HLA class I peptide
Procedure: PBMC from MM patients and HVs were cultured as described previously. In brief, for CD8^+ T-cell stimulation, PBMC were pulsed with 1 μg/ml per peptide and cultured for 12 days adding IL-4 and IL-7 on day 0 and 1 as well as IL-2 on day 3, 5, 7 and 9. HLA-A*02 (KLFEKVKEV) (SEQ ID NO. 231) and B*07 (KPSEKIQVL) (SEQ ID NO. 232) restricted control peptides derived from benign tissues (HV-exclusive HLA ligands) served as negative control. Peptide-stimulated PBMC were analyzed by ELISPOT assays on day 12. For CD4^+ T-cell stimulation, culture was performed as described for CD8^+ T cells except for 2 modifications: pulsing was carried out with 10 μg/ml of HLA class II peptide and no IL-4 or IL-7 was added.
IFNγ ELISPOT assays were carried out as described previously. In brief, 96-well nitrocellulose plates (Millipore) were coated with […] IFNγ mAb (Mabtech) and incubated over night at 4° C. Plates were blocked with 10% human serum for 2 h at 37° C. 2.5×10^5 cells/well of pre-stimulated PBMC were pulsed with 1 μg/ml (HLA class I) or 2.5 μg/ml (HLA class II) peptide and incubated for 24-26 h. Readout was performed according to manufacturer's instructions. PHA was used as positive control. HLA-A*02 (KLFEKVKEV) (SEQ ID NO. 231) and B*07 (KPSEKIQVL) (SEQ ID NO. 232) restricted control peptides derived from benign tissues (HV-exclusive HLA ligands) served as negative control. Spots were counted using an ImmunoSpot S5 analyzer (CTL). T cell responses were considered to be positive when >10 spots/well were counted and the mean spot count per well was at least 3-fold higher than the mean number of spots in the negative control wells (according to the cancer immunoguiding program (CIP) guidelines).

[3] = test system: CD8+ T cells from one healthy individual; assay: aAPC priming and tetramer staining, CD8+ T cells of a healthy individual
Procedure: as §1, §2

## SLLEQGLVEA (listed as Homo sapiens) [SEQ ID NO: 177]
[1]
  P2-tetramer positive CD8+ T cells after priming: 0.236%
[2]
  specific T-cell recognition, MM patients positive/tested: 1/8
  specific T-cell recognition, share of MM patients: 13%
[3]; HV-derived CD8+ T cells, 3 cycles of aAPC priming
  P2-tetramer positive CD8+ T cells after in vitro priming: 0.403%
[3]; ex vivo, without priming
  tetramer-positive T-cell populations ex vivo: ≤ 0.1%

— patent publication US10906938B2, “Cell epitopes and combination of cell epitopes for use in the immunotherapy of myeloma and other cancers” (Immatics Biotechnologies GmbH, priority 2015, dated 2021)
